Measured values: patent US20230097975A1, “BORTEZOMIB COMPOSITIONS” (MAIA Pharmaceuticals, Inc., priority 2021, published 2023)
In brackets after ≈: the same amount, converted by molar mass.

Key:
[1] = Estimated solubility of bortezomib in select non-aqueous solvents (visual, incremental solvent addition); format: physicochemical
Description: The appearance of the solution was recorded.

[2] = cited from earlier work

SMILES | Observation ([1]; N-methyl pyrrolidone (NMP)) | Observation (solvent needed to dissolve approx. 25 mg) ([1]; alcohol (ethanol)) | Observation ([1]; benzyl alcohol) | Observation ([1]; dimethyl sulfoxide (DMSO)) | Observation ([1]; glycerol) | Estimated Solubility ([1]; in benzyl alcohol) | Estimated Solubility ([1]; in dimethyl sulfoxide (DMSO)) | Observation ([1]; polyethylene glycol 400) | Observation (solvent needed to dissolve approx. 25 mg) ([1]; propylene glycol) | Solubility in water [2]
CC(C)C[C@H](NC(=O)[C@H](Cc1ccccc1)NC(=O)c1cnccn1)B(O)O [Bortezomib, [(1R)-3-methyl-1-[[(2S)-1-oxo-3-phenyl-2-[(pyrazinylcarbonyl)amino]propyl]amino]butyl] boronic acid] | Completely dissolved after 1 mL | Approximately 5.5 mL of solvent needed | Completely dissolved after 0.5 mL | Completely dissolved after 0.5 mL | No significant dissolution observed up to 10 mL | > 50 mg/mL | > 50 mg/mL | No significant dissolution observed up to 10 mL | Approximately 7 mL of solvent needed | 
OCc1ccccc1 [benzyl alcohol] |  |  |  |  |  |  |  |  |  | 35 mg/mL (≈ 324 mM)
